Among the data in patent US20140294970A1, “STABILIZED PHARMACEUTICAL SUB-MICRON SUSPENSIONS AND METHODS OF FORMING SAME” (Alcon Research, Ltd., priority 2008, published 2014) are IC50 values, retold here.

The subject of this test is FGFR. The test can be described thus: Kinase inhibition, cell-free enzymatic assay. Format: biochemical. Conditions: 1 mM ATP. The procedure:
All data reported as IC50 values for kinase inhibition in cell-free enzymatic assays. Values determined @ 1 mM ATP.

For the molecule `Cc1ccc(F)c(NC(=O)Nc2ccc(-c3cccc4[nH]nc(N)c34)cc2)c1` [RTK Inhibitor, N-[4-(3-amino-1H-indazol-4-yl)phenyl]-N′-(2-fluoro-5-methylphenyl) urea], the IC50 was above 12.5 µM.
